This experiment relates to Diabetic Peripheral Neuropathy in a Mouse Induced by Streptozotocin. Put plainly: Von Frey test (0.16 g filament), diabetic peripheral neuropathy induced by streptozotocin. The experiment is classed as in vivo, C57BL/6J mice. Conditions: time course. The protocol: On Day 8 of acclimation, the mice in the group receiving streptozotocin and the group receiving streptozotocin+1 mg/kg xylitol were administered with streptozotocin at a dose of 200 mg/kg. A massive dose of streptozotocin destroys pancreatic cells in the mice. As a result, insulin is no longer secreted, and thus, diabetes can be developed in the mice. This day was designated as the first day of the administration (Day 0). Note that streptozotocin was administered only on the first day of administration. […]
Six to seven-week-old male C57BL/6J mice were used for the tests as with Example 7. All the mice were acclimated for seven days after arrival. Then, the mice were grouped into the following four groups: a control group, a group receiving streptozotocin, a group receiving 1 mg/kg xylitol, and a group receiving streptozotocin+1 mg/kg xylitol. Each group consisted of nine mice.
The mice in the group receiving 1 mg/kg xylitol were orally administered with xylitol at a dose of 1 mg/kg daily from Day 0. The mice in the group receiving streptozotocin+1 mg/kg xylitol were orally administered with xylitol at a dose of 1 mg/kg daily from Day 21 of administration.
The mice in the four groups described in (1) of the present example (Example 8) were placed in a cage, and the avoidance response frequency (score) was measured by pressing a filament with a bending force of 0.16 g against the back of the hind paw. […]
On Day 8 of acclimation, the mice in the group receiving streptozotocin and the group receiving streptozotocin+5 mg/kg D-threitol were administered with streptozotocin at a dose of 200 mg/kg. A massive dose of streptozotocin destroys pancreatic cells in the mice. As a result, insulin is no longer secreted, and thus, diabetes can be developed in the mice. This day was designated as the first day of the administration (Day 0). Note that streptozotocin was administered only on the first day of administration.
The mice in the group receiving 5 mg/kg D-threitol and the group receiving streptozotocin+5 mg/kg D-threitol were orally administered with D-threitol at a dose of 5 mg/kg daily from Day 0. […]
The mice in the group receiving 5 mg/kg D-threitol were orally administered with D-threitol at a dose of 5 mg/kg daily from Day 0. […]
The mice in the four groups described in (1) of the present example (Example 10) were placed in a cage, and the avoidance response frequency (score) was measured by pressing a filament with a bending force of 0.16 g against the back of the hind paw. […]
The mice in the four groups described in (1) of the present example (Example 11) were placed in a cage, and the avoidance response frequency (score) was measured by pressing a filament with a bending force of 0.16 g against the back of the hind paw. […]

Where [1] appears, read: streptozotocin 200 mg/kg + 5 mg/kg orally daily from Day 21 (therapy).

Turning to `OC[C@@H](O)[C@H](O)CO` [D-threitol], the avoidance response score result under setting [1] was “reduced from Day 24 onwards”. As for `OC[C@@H](O)[C@H](O)[C@@H](O)CO` [xylitol], where the note is “streptozotocin 200 mg/kg + 1 mg/kg orally daily from Day 21 (therapy)”, the avoidance response score result was “reduced from Day 21 onwards”.

With `OC[C@H](O)[C@H](O)[C@H](O)[C@@H](O)CO` [L-talitol], the avoidance response score result under setting [1] was “reduced from Day 21 onwards”.
